Test results published in the supplement of paper PMC10307832.

Legend:
Test in all cases: relative viability (nuclei count vs DMSO), 5 days (fraction); higher = more cells survive
Ispinesib + Vorinostat = compound: Cc1ccc(C(=O)N(CCCN)[C@@H](c2nc3cc(Cl)ccc3c(=O)n2Cc2ccccc2)C(C)C)cc1 [Ispinesib] + O=C(CCCCCCC(=O)Nc1ccccc1)NO [Vorinostat] (partner 1 µM)
How it was run: (§1)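 Nuclei were stained with Hoechst during a one-step fixation (final 0.05% Triton X-100, 1% formaldehyde, 1 ug/ml Hoechst) carried out 5 days after dosing, then counted on 4× images. The cells, lung cancer lines in 1536-well plates, had been dosed by pin tool the day after seeding with one drug alone or a fixed anchor-drug dose plus five library-drug doses (not always all listed) in √10 steps. Relative viability is the nuclei count in treated wells divided by that in vehicle wells, and each value is the median of duplicate plates.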

Ispinesib + Palbociclib = compound: Cc1ccc(C(=O)N(CCCN)[C@@H](c2nc3cc(Cl)ccc3c(=O)n2Cc2ccccc2)C(C)C)cc1 [Ispinesib] + CC(=O)c1c(C)c2cnc(Nc3ccc(N4CCNCC4)cn3)nc2n(C2CCCC2)c1=O [Palbociclib] (partner 0.5 µM)
How it was run: as §1

Linsitinib + Navitoclax = compound: C[C@]1(O)C[C@@H](c2nc(-c3ccc4ccc(-c5ccccc5)nc4c3)c3c(N)nccn32)C1 [Linsitinib] + CC1(C)CCC(c2ccc(Cl)cc2)=C(CN2CCN(c3ccc(C(=O)NS(=O)(=O)c4ccc(N[C@H](CCN5CCOCC5)CSc5ccccc5)c(S(=O)(=O)C(F)(F)F)c4)cc3)CC2)C1 [Navitoclax] (partner 0.5 µM)
How it was run: as §1

Ispinesib + AZD7762 = compound: Cc1ccc(C(=O)N(CCCN)[C@@H](c2nc3cc(Cl)ccc3c(=O)n2Cc2ccccc2)C(C)C)cc1 [Ispinesib] + NC(=O)Nc1cc(-c2cccc(F)c2)sc1C(=O)N[C@H]1CCCNC1 [AZD7762] (partner 0.2 µM)
How it was run: as §1

Cell Line	relative viability (Ispinesib + Vorinostat; first compound 0.001 µM)	relative viability (Ispinesib + Vorinostat; first compound 0.003162 µM)	relative viability (Ispinesib + Vorinostat; first compound 0.01 µM)	relative viability (Ispinesib + Vorinostat; first compound 0.03162 µM)	relative viability (Ispinesib + Vorinostat; first compound 0.1 µM)	relative viability (Ispinesib + Palbociclib; first compound 0.001 µM)	relative viability (Ispinesib + Palbociclib; first compound 0.003162 µM)	relative viability (Ispinesib + Palbociclib; first compound 0.01 µM)	relative viability (Ispinesib + Palbociclib; first compound 0.03162 µM)	relative viability (Ispinesib + Palbociclib; first compound 0.1 µM)	relative viability (Linsitinib + Navitoclax; first compound 0.01 µM)	relative viability (Linsitinib + Navitoclax; first compound 0.03162 µM)	relative viability (Linsitinib + Navitoclax; first compound 0.1 µM)	relative viability (Linsitinib + Navitoclax; first compound 0.3162 µM)	relative viability (Linsitinib + Navitoclax; first compound 1 µM)	relative viability (Ispinesib + AZD7762; first compound 0.001 µM)	relative viability (Ispinesib + AZD7762; first compound 0.003162 µM)	relative viability (Ispinesib + AZD7762; first compound 0.01 µM)	relative viability (Ispinesib + AZD7762; first compound 0.03162 µM)	relative viability (Ispinesib + AZD7762; first compound 0.1 µM)
NCI-H661	0.869	0.804	0.849	0.302	0.19	0.398	0.4	0.406	0.282	0.248	–	–	–	–	–	–	–	–	–	–
CAL-12T	0.839	0.914	0.583	0.585	0.24	0.452	0.409	0.29	0.177	0.195	1.2	1.2	1.28	1.05	0.991	0.707	0.74	0.594	0.52	0.212
HARA	0.519	0.567	0.528	0.477	0.389	0.299	0.262	0.284	0.256	0.225	1.09	1.17	1.13	0.788	1.15	0.501	0.345	0.365	0.308	0.227
NCI-H596	0.58	0.741	0.642	0.609	0.35	–	–	–	–	–	0.835	1.01	0.938	0.805	0.931	1.2	0.683	1.19	1.15	0.423
LU99A	0.445	0.485	0.467	0.265	0.247	0.398	0.44	0.481	0.315	0.285	0.975	0.892	0.749	0.602	0.691	0.474	0.368	0.394	0.161	0.14
LC-2-ad	0.718	0.697	0.765	0.321	0.19	0.541	0.54	0.566	0.482	0.272	0.368	0.406	0.486	0.339	0.368	0.942	0.941	1.02	0.425	0.322
NCI-H1650	0.779	0.535	0.521	0.416	0.234	0.368	0.346	0.3	0.172	0.254	1.33	1.36	1.29	0.743	1.1	–	–	–	–	–
NCI-H1915	0.532	0.539	0.525	0.238	0.101	0.528	0.694	0.542	0.491	0.41	0.813	0.811	0.81	0.681	0.781	0.728	0.687	0.748	0.451	0.112
ABC-1	1.14	1.3	1.05	–	0.548	0.578	0.665	0.765	–	0.49	–	–	–	–	–	0.981	1.21	0.852	0.395	0.301
HCC-44	1.04	1.05	1.15	1.23	1.08	0.996	0.985	0.978	0.999	0.948	1.01	0.839	0.85	0.718	0.794	0.983	1.1	1.02	1.03	0.756
HCC-78	0.422	0.49	0.459	0.404	0.414	0.427	0.586	0.516	0.473	0.351	0.882	0.889	0.711	0.789	0.661	0.691	0.592	0.532	0.526	0.422
LXF-289	0.758	0.772	0.837	0.478	0.217	0.629	0.666	0.674	0.619	0.589	0.951	0.932	0.929	0.783	0.939	1.09	1.12	1.22	0.788	0.119
201T	1	1.01	1.02	0.908	0.28	0.378	0.407	0.361	0.409	0.345	1.22	1.26	1.23	1.29	1.24	0.662	0.521	0.643	0.65	0.309
NCI-H1734	0.854	0.904	0.91	0.552	0.262	0.396	0.224	0.41	0.346	0.279	0.77	0.865	0.925	0.821	0.784	0.709	0.627	0.64	0.448	0.245
NCI-H2126	0.754	0.867	0.932	0.789	0.289	0.335	0.393	0.314	0.339	0.385	0.95	0.808	0.945	0.925	0.878	1.04	1.08	1.2	1.03	0.591
LOU-NH91	0.91	1.04	0.939	0.247	0.236	0.535	0.548	0.513	0.52	0.336	0.786	0.651	0.707	0.686	0.678	0.807	0.854	0.877	0.432	0.297
NCI-H1792	–	–	–	–	–	0.725	0.762	0.859	0.686	0.301	0.553	0.597	0.5	0.54	0.438	0.73	0.742	0.828	0.119	0.157
